{"source": "patent US8030352B2", "about": "“Method of producing retinyl esters” (Unilever Home & Personal Care USA, division of Conopco, Inc., priority 2002, dated 2011)", "experiment": "Retinyl ester stability in moisturising cream formulations (HPLC)", "format": "physicochemical", "conditions": "0.03 and 0.15% retinyl ester in cream; stored at 22, 30, 45 and 50° C.; sampled over 35 days; FIGS. 1 and 2", "method": "Retinyl Linoleate from National Starch Corp. and the retinyl ester product from example 1 were blended into moisturising cream formulations shown below in Formulations 1 and 2 at a level of 0.03 and 0.15% of the retinyl ester. The creams were stored at 22° C., 30° C., 45° C. and 50° C. and samples taken at time 0, and twice more over 35 days as shown in FIGS. 1 and 2.\nThe retinyl esters were extracted from the base cream 60/40 acetone/acetonitrile, stirred for 10 minutes, filtered and then injected These were then analysed by HPLC according to the conditions below.\nFIGS. 1 and 2 show the stability results for the samples.", "data": [{"smiles": "CCCCCCCCCCCCCCCC(=O)OC/C=C(C)/C=C/C=C(C)/C=C/C1=C(C)CCCC1(C)C", "note": "[retinyl palmitate]", "values": [{"measurement": "stability in moisturising cream", "value": "only as stable as retinyl linoleate (National Starch)"}]}]}
